Test results taken from paper PMC10224335, “Purification, Identification, and Inhibitory Mechanisms of a Novel ACE Inhibitory Peptide from Torreya grandis” (Nutrients, 2023).
Where two headings read alike, the source gives them in different places. Peptide text beside a SMILES is read from it.

How the values were obtained:
Cell viability, CCK-8 = format: cell-based, Human; details: human, EA.hy926 cells
Description: (§1) Human umbilical vein endothelial cells (EA.hy926) were grown in DMEM with 10% FBS and 1% penicillin-streptomycin at 37 °C in a humidified environment of 5% CO2.
(§2) Using a cell counting kit-8 (CCK-8) kit, the cytotoxicity of the peptide VNDYLNW in EA.hy926 was assessed. In 96-well cell culture plates, cells were inoculated at a density of 5 × 10^3/well. After 24 h of pre-incubation at 37 ℃ and 5% CO2, 50 µL of peptides with different concentrations were added to achieve the final concentrations of solution of 100, 200, 400, 600, 800, and 1000 µg/mL (using complete medium as the control) for 24 h. Following treatment, the culture medium was removed, 100 µL of medium (without FBS) was added, and 10 µL of CCK-8 was then added to each well. The culture was incubated for 1 h at 37 ℃ and 5% CO2. Finally, the light absorption value at 450 nm was detected by the microplate reader. Relative cell viability was calculated according to Equation (3):(3) Cell viability%=(A − A0)/A1 − A0 × 100 where A1 is the absorbance of cells that are not treated with peptides, A is the absorbance of cells that are treated with peptides, and A0 is the absorbance of the group without cells in the medium.

EA.hy926 cells = experiment: Cell viability, CCK-8; format: cell-based, Human; details: 0–400 μg/mL, 24 h
Description: as §1, §2

pepsin and trypsin = experiment: Stability against simulated gastrointestinal digestion (pepsin, trypsin); format: in vitro ADME
Description: The simulated gastrointestinal digestion method was applied according to Li et al., with some modifications. In brief, pH 2.0 was adjusted for the VW-7 solution (ultrapure water, c = 0.4 mg/mL). The peptide solution was mixed with pepsin (2%, w/w) for 2 h at 37 °C. The pH was changed to 7.0 after the process, and half of the liquid was withdrawn. The other half was then given trypsin (2%, w/w) and digested at 37 °C for 2 h. Finally, the reaction was terminated by a boiling water bath, and the ACE inhibition rate of the two-step reaction products was measured.
RP-HPLC was used to analyze the liquid obtained after digestion. The mobile phase A was water containing 0.1% TFA, and the mobile phase B was 100% ACN containing 0.1% TFA. The flow rate was set to 1 mL/min, the detection wavelength was 214 nm, and the column temperature was 30 °C.

ACE = details: cited from earlier work; for IC50: read-out: IC50 of ACE inhibition
From the text: The ACE inhibitory activity of the remaining peptides was low, and the inhibition rate was below 20%. Here, we measured the I ... || Based on the Lineweaver–Burk plot analysis, the inhibitory mechanism of VW-7 on ACE was investigated. According to Table 3, the Vmax value decreased and the Km value increased as the peptide concentration increased. […] When the peptide binds to ...

cells = details: treatment with 25–100 µg/mL; cited from earlier work
From the text: NO is a messenger molecular medium that provides multiple functions in biological tissues. Previous studies have shown that the production of NO is one of the potential mechanisms for the prevention and treatment of hypertension. Inhibiting ACE can prevent vasodilator breakdown and directly stimulate endothelial cells to produce NO [16]. We cultured EA.hy926 cells in the medium and evaluated the intracellular NO in order to see how VW-7 affected the generation of NO in these cells.

In the case of `CC(C)C[C@H](NC(=O)[C@H](Cc1ccc(O)cc1)NC(=O)[C@H](CC(=O)O)NC(=O)[C@H](CC(N)=O)NC(=O)[C@@H](N)C(C)C)C(=O)N[C@@H](CC(N)=O)C(=O)N[C@@H](Cc1c[nH]c2ccccc12)C(=O)O` [VNDYLNW] (H-VNDYLNW-OH), the viability at 24 h, 600 µg/mL (Cell viability, CCK-8; 600 µg/mL, mean ± SD) is reported as 92.4 ± 2.4%, the viability at 24 h (Cell viability, CCK-8; concentration above 600 µg/mL (up to 1000 µg/mL)) is reported as under 80% and the “toxic effect on EA.hy926 cells” value (EA.hy926 cells) is reported as “no toxic effect”. For the same molecule, the “toxic effect on EA.hy926 cells” value (EA.hy926 cells; listed as VW-7) was “no cytotoxicity”, the “ACE inhibitory action after gastrointestinal digestion” value (pepsin and trypsin; 0.4 mg/mL in ultrapure water, pH 2.0 pepsin 2% w/w 2 h 37 °C, then pH 7.0 trypsin 2% w/w 2 h 37 °C, read-out ACE inhibition rate, p > 0.05) was “remained essentially unaltered” and the “RP-HPLC peak area after two-step digestion” value (pepsin and trypsin; 0.4 mg/mL, pepsin pH 2.0 2 h then trypsin pH 7.0 2 h, 37 °C, RP-HPLC, UV 214 nm) was “did not change”.

In the case of VDMF, the IC50 (ACE; peptide extracted from Coix prolamin) is given as 382 µM.

In the case of “VASVI [reported antihypertensive peptide from Olive Flounder Surimi]”, the “production of NO in cells” value (cells) is given as “significantly increased”.

In the case of VTPVGVPKW, the IC50 (ACE; peptide extracted from Black Cumin seeds) is given as 1.8 µM.

In the case of NMAINPSKENLCSTFCK, the “type of ACE inhibition” value (ACE; peptide from casein) is given as “mixed-type inhibition”.

In the case of EVSQGRP, the “type of ACE inhibition” value (ACE; peptides from sea cucumber) is given as “mixed-type inhibition”.

For VSRHFASYAN, the “type of ACE inhibition” value (ACE; peptides from sea cucumber) is given as “mixed-type inhibition”.

For SAAVGSP, the “type of ACE inhibition” value (ACE; peptides from sea cucumber) is given as “mixed-type inhibition”.
